The text below walks through data of patent publication US12473298B2, “Amide compounds, preparation method therefor, and use thereof in the medical field” (Shanghai Synergy Pharmaceutical Sciences Co., Ltd., priority 2019, dated 2025).

Read-outs that look alike come from different tables or passages of the source.

In one data set the target is Mutant type EZH2(Y641F) (Homo sapiens (Human), UniProt Q15910, Y641F). Put plainly: AlphaLISA, mutant type PRC2 complex EZH2(Y641F). It counts as biochemical. The conditions noted are these: read-out: Mutant type EZH2(Y641F) IC50 Nanomoles per Liter.
Sequence of Mutant type EZH2(Y641F) (Q15910 whole entry Y641F): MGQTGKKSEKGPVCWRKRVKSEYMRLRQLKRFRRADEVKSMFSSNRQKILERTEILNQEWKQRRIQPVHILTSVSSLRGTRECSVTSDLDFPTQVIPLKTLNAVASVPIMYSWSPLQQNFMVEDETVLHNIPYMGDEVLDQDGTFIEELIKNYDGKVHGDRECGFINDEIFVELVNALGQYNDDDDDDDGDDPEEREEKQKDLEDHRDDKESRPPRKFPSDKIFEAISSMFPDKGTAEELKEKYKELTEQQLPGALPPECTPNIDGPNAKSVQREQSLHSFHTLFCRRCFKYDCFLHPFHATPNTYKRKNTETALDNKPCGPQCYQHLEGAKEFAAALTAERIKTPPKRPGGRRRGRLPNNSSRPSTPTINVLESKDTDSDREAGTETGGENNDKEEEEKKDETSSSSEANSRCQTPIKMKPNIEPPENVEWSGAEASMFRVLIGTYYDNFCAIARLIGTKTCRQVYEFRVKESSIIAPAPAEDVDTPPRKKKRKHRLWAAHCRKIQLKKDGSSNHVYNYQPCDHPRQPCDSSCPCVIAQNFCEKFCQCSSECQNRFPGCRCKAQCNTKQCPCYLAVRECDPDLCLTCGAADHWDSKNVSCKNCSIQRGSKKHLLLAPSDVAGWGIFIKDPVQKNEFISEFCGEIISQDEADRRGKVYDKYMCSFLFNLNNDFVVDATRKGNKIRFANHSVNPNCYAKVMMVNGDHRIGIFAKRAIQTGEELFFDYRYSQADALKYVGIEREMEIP
Sequence of Mutant type EZH2(Y641F) (O75530 whole entry partner): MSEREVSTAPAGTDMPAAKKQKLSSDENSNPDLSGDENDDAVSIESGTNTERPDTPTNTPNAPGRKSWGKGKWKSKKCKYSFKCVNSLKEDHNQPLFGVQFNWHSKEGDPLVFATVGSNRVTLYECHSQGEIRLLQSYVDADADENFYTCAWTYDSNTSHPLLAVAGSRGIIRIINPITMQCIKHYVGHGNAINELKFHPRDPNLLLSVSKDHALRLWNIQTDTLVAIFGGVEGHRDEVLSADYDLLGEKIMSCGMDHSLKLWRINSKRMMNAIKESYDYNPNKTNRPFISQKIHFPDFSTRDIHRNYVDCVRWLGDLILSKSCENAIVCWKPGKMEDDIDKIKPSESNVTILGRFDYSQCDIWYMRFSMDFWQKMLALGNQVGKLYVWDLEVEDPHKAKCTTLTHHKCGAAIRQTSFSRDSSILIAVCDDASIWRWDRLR
Sequence of Mutant type EZH2(Y641F) (Q15022 whole entry partner): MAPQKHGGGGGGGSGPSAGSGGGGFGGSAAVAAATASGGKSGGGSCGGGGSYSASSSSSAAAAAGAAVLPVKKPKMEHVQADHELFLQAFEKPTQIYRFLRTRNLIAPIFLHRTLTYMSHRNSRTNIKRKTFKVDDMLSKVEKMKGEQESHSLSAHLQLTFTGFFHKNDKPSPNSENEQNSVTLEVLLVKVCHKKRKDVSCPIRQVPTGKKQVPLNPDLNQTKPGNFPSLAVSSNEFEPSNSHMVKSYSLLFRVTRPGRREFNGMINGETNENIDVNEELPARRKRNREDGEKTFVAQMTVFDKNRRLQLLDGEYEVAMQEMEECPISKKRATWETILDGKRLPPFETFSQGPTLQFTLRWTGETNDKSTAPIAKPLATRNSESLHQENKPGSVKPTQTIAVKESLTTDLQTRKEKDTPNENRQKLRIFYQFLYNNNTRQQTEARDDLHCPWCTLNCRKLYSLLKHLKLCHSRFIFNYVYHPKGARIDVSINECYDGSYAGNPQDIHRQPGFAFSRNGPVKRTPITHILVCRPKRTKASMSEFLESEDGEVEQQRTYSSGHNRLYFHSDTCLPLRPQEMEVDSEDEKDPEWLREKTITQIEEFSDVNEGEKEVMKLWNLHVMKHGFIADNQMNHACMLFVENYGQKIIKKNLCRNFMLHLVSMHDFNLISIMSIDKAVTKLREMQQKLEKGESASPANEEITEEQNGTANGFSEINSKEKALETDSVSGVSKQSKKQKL
Sequence of Mutant type EZH2(Y641F) (Q09028 whole entry partner): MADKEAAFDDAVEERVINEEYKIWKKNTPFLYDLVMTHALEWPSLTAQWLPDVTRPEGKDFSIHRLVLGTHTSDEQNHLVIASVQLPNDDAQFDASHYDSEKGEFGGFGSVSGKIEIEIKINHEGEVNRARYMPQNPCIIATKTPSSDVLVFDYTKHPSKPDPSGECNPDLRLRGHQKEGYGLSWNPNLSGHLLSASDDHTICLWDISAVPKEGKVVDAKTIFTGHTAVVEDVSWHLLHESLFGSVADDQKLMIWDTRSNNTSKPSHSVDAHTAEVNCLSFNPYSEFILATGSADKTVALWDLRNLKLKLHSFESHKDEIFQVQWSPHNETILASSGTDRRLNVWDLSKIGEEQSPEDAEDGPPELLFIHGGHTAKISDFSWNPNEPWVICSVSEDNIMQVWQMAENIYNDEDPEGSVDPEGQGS
Sequence of Mutant type EZH2(Y641F) (Q6ZN18 whole entry partner): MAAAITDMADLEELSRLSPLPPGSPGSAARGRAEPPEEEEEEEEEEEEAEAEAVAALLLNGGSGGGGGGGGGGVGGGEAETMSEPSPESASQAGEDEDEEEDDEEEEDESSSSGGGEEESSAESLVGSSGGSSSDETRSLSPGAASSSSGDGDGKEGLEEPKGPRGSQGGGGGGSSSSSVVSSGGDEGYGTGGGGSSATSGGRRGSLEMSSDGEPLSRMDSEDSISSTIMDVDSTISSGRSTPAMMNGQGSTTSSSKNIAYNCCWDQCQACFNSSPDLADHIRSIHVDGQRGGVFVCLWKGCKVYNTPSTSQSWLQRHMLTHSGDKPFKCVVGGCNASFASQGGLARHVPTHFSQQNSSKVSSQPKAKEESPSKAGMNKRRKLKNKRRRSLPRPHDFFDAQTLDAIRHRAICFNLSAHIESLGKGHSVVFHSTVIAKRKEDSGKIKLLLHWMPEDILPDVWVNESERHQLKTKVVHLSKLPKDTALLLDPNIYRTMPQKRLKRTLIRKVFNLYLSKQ
A short description of data set [1]: Pharmacokinetic experiment in rats. It is filed as in vivo, SD rats. As to the method:
A certain amount of compound was weighted and dissolved in 0.1% Tween under vortex and ultrasound, and 0.5% carboxymethyl cellulose sodium (CMC-NA) solution was added to form a uniform solution.

A further data set has as its target Mutant type EZH2(A677G) (Homo sapiens (Human), UniProt Q15910, A677G). Description: AlphaLISA, mutant type PRC2 complex EZH2(A677G). It is filed as biochemical. As to conditions: read-out: Mutant type EZH2(A677G) IC59 Nanomoles per Liter.
The test system of data set [2] is human diffuse large B-cell lymphoma cells (Karpas 422 cell). Description: Karpas 422 cell proliferation, Calcein AM staining. It counts as cell-based. As to conditions: data of 14th day, read-out: Karpas422 Proliferation IC50 Nanomoles per Liter.
Data set [3] concerns human diffuse large cell lymphoma B lymphocytes (Pfeiffer cell). Description: Pfeiffer cell proliferation, Calcein AM staining. It is filed as cell-based. As to conditions: data of 14th day, read-out: Pfeiffer Proliferation IC50 Nanomoles per Liter.
Text: The diffuse large cell lymphoma B lymphocytes (Pfeiffer cells) were collected and counted when growing well.
Data set [4] has the same test system. Description: Pharmacodynamic experiment, Pfeiffer transplanted tumor model in mice. It counts as in vivo, mice (beige SCID). As to conditions: intragastrically, once a day for 21 days; for inhibited tumor growth: 100 mg/kg; for inhibition in vivo at 100 mg/kg: Mus musculus, Pfeiffer, po, 504 h, read-out: inhibited tumor growth.
Text: Under sterile conditions, human diffuse large cell lymphoma B lymphocytes (Pfeiffer cell) in logarithmic growth stage were digested and mixed with Matrigel and transplanted subcutaneously on the right back of mice (beige SCID) with severe combined immunodeficiency disease.
The target in the next data set is wild-type EZH2 (Homo sapiens (Human), UniProt Q15910). Put plainly: radiometric assay, activity to wild-type EZH2 of PRC2. The conditions noted are these: read-out: Wild-type EZH2 IC50 Nanomoles per Liter.
Sequence of wild-type EZH2 (Q15910 whole entry): as the sequence (Q15910 whole entry Y641F) above, with F641Y counted along it
Sequence of wild-type EZH2 (O75530 whole entry partner): as the sequence (O75530 whole entry partner) above
Sequence of wild-type EZH2 (Q15022 whole entry partner): as the sequence (Q15022 whole entry partner) above
The next data set deals with Mutant type EZH2(Y641N) (Homo sapiens (Human), UniProt Q15910, Y641N). Put plainly: AlphaLISA, mutant type PRC2 complex EZH2(Y641N). It is filed as biochemical. As to conditions: read-out: Mutant type EZH2(Y641N) IC50 Nanomoles per Liter.
Sequence of Mutant type EZH2(Y641N) (Q15910 whole entry Y641N): as the sequence (Q15910 whole entry Y641F) above, with F641N counted along it
Sequence of Mutant type EZH2(Y641N) (O75530 whole entry partner): as the sequence (O75530 whole entry partner) above
Sequence of Mutant type EZH2(Y641N) (Q15022 whole entry partner): as the sequence (Q15022 whole entry partner) above
Sequence of Mutant type EZH2(Y641N) (Q09028 whole entry partner): as the sequence (Q09028 whole entry partner) above
Sequence of Mutant type EZH2(Y641N) (Q6ZN18 whole entry partner): as the sequence (Q6ZN18 whole entry partner) above
[5] abbreviates: rats, oral 20 mg/kg vs intravenous 4 mg/kg.
The mark [6] stands for this setting: male, SD, rat, plasma, rats, Intravenous-Dose 4 mg/kg, read-out: Area Curve (AUC, ng/mL · h).
The mark [7] stands for this setting: male, SD, rat, plasma; rats, Intravenous-Dose 4 mg/kg; read-out: Half life T1/2, h) (converted).
Setting [8] is: male, SD, rat, plasma, rats, Oral-Dose 20 mg/kg, read-out: Area Curve (AUC, ng/mL · h).
[9] abbreviates: male, SD, rat, plasma, rats, Oral-Dose 20 mg/kg, read-out: Blood Drug level (Cmax, ng/mL).
Setting [10] is: male, SD, rat, plasma, rats, oral 20 mg/kg vs intravenous 4 mg/kg, read-out: Bioavailability (P %).
The mark [11] stands for this setting: male, SD, rat, in vivo, iv, 4 mg/kg.
Setting [12] is: male, SD, rat, in vivo, po, 20 mg/kg.

Sequence of Mutant type EZH2(A677G) (Q15910 whole entry A677G): as the sequence (Q15910 whole entry Y641F) above, with F641Y, A677G counted along it
Sequence of Mutant type EZH2(A677G) (O75530 whole entry partner): as the sequence (O75530 whole entry partner) above
Sequence of Mutant type EZH2(A677G) (Q15022 whole entry partner): as the sequence (Q15022 whole entry partner) above
Sequence of Mutant type EZH2(A677G) (Q09028 whole entry partner): as the sequence (Q09028 whole entry partner) above
Sequence of Mutant type EZH2(A677G) (Q6ZN18 whole entry partner): as the sequence (Q6ZN18 whole entry partner) above
Experimental for wild-type EZH2: 25 μL of reaction solution was transferred to a scintillation plate, which was incubated at room temperature for 1 hour (h) and washed with deionized water and 0.1% Tween 20 for three times. A PerkinElmer liquid scintillation/luminescence counter was used to read the value, and GraphPad Prism 5 was used to calculate the median inhibitory concentration (IC50) of the compounds.

“3-(ethyl(tetrahydro-2H-pyran-4-yl)amino)-5-(6-fluoro-2,2′,3,3′,5′,6′-hexahydrospiro[indene-1,4′-pyran]-5-yl)-N-((4-methoxy-6-methyl-2-oxo-1,2-dihydropyridin-3-yl)methyl)-2-methylbenzamide 9-1 and 3-(ethyl(tetrahydro-2H-pyran-4-yl)amino)-5-(5-fluoro-2,2′,3,3′,5′,6′-hexahydrospiro[indene-1,4′-pyran]-6-yl)-N-((4-methoxy-6-methyl-2-oxo-1,2-dihydropyridin-3-yl)methyl)-2-methylbenzamide 9-2 [Example 9]”: the IC50 on Mutant type EZH2(Y641F) is 0.52 nM; on Mutant type EZH2(A677G) it was 0.37 nM; in data set [2], 1.8 nM; in data set [3], 0.42 nM; on wild-type EZH2, 0.7 nM. For the same compound, the “Area Curve (AUC, ng/mL · h)” value turned out to be 926.01 ng·h/mL in data set [1] (rats, Intravenous-Dose 4 mg/kg) and 1522.36 ng·h/mL in data set [1] (rats, Oral-Dose 20 mg/kg). Moreover, in data set [1] (rats, Intravenous-Dose 4 mg/kg), the “Half life T1/2, h)” value was 1.54 h. The “Blood Drug level (Cmax, ng/mL)” value in data set [1] (rats, Oral-Dose 20 mg/kg) turned out to be 437.25 ng/mL. The “Bioavailability (P %)” value in data set [1] (setting [5]) is reported as 32.88%. Moreover, in data set [4], the inhibited tumor growth was found to be 97%.
For the compound `CCN(c1cc(-c2ccc3c(c2)NCC32CCOCC2)cc(C(=O)NCc2c(OC)cc(C)[nH]c2=O)c1C)C1CCNCC1` [Example 5, 3-(ethyl(piperidin-4-yl)amino)-N-((4-methoxy-6-methyl-2-oxo-1,2-dihydropyridin-3-yl)methyl)-2-methyl-5-(2′,3′,5′,6′-tetrahydrospiro[indoline-3,4′-pyran]-6-yl)benzamide], the figures for the AUC in data set [1] (setting [6]) and in data set [1] (setting [8]) were 912 ng·h/mL and 1570 ng·h/mL, respectively. For the same compound, the half-life in data set [1] (setting [7]) was 1.05 h. In addition, the Cmax in data set [1] (setting [9]) amounted to 453 ng/mL. The bioavailability in data set [1] (setting [10]) is 34.3%. The inhibition in vivo at 100 mg/kg in data set [4] worked out at 98%.
`CCN(c1cc(-c2ccc3c(c2)NCC32CCN(C)CC2)cc(C(=O)NCc2c(C)cc(C)[nH]c2=O)c1C)C1CCOCC1` [Example 7, N-((4,6-dimethyl-2-oxo-1,2-dihydropyridin-3-yl)methyl)-3-(ethyl(tetrahydro-2H-pyran-4-yl)amino)-2-methyl-5-(1′-methylspiro[dihydroindole-3,4′-piperidine]-6-yl)benzamide]: in data set [1] (rats, Intravenous-Dose 4 mg/kg), the “Area Curve (AUC, ng/mL · h)” value was found to be 937.25 ng·h/mL and the “Half life T1/2, h)” value is 1.64 h. Moreover, in data set [1] (rats, Oral-Dose 20 mg/kg), the “Area Curve (AUC, ng/mL · h)” value stood at 1435.87 ng·h/mL and the “Blood Drug level (Cmax, ng/mL)” value is on record as 405.10 ng/mL. For the same compound, the “Bioavailability (P %)” value in data set [1] (setting [5]) came to 30.64%. Moreover, the inhibited tumor growth in data set [4] worked out at 95%.
With `CCN(c1cc(-c2cc3c(cc2F)C2(CCOCC2)C(=O)N3C)cc(C(=O)NCc2c(C)cc(C)[nH]c2=O)c1C)C1CCOCC1` [Example 12, N-((4,6-dimethyl-2-carbonyl-1,2-dihydropyridin-3-yl)methyl)-3-(ethyl(tetrahydro-2H-pyran-4-yl)amino)-5-(5-fluoro-1-methyl-2-carbonyl-2′,3′,5′,6′-tetrahydrospiro[dihydroindole-3,4′-pyran]-6-yl)-2-methylbenzamide], the AUC is 896 ng·h/mL in data set [1] (setting [6]) and 1510 ng·h/mL in data set [1] (setting [8]). Further, the half-life in data set [1] (setting [7]) is 1.37 h. For the same compound, the Cmax in data set [1] (setting [9]) is 412 ng/mL. The bioavailability in data set [1] (setting [10]) was found to be 33.7%. Besides, the IC50 in data set [2] (Homo sapiens, KARPAS-422) is 0.96 nM; in data set [3] (Homo sapiens, Pfeiffer), 0.19 nM. Also, the inhibition in vivo at 100 mg/kg in data set [4] stood at 99%.
In the case of `CCN(c1cc(-c2ccc3c(c2)N(C)C(=O)C32CCNCC2)cc(C(=O)NCc2c(OC)cc(C)[nH]c2=O)c1C)C1CCOCC1` [Example 34, 3-(ethyl(tetrahydro-2H-pyran-4-yl)amino)-N-((4-methoxy-6-methyl-2-carbonyl-1,2-dihydropyridin-3-yl)methyl)-2-methyl-5-(1-methyl-2-carbonylspiro[dihydroindole-3,4′-piperidine]-6-yl)benzamide], the results for the AUC in data set [1] (setting [6]) and in data set [1] (setting [8]) were 966 ng·h/mL and 1750 ng·h/mL, respectively. In data set [1] (setting [7]), the half-life was 1.32 h. The Cmax in data set [1] (setting [9]) came out at 594 ng/mL. The bioavailability in data set [1] (setting [10]) worked out at 36.3%. Besides, the inhibition in vivo at 100 mg/kg in data set [4] came to 96%.
For `CCN(c1cc(-c2ccc3c(c2)C2(CCOCC2)C(=O)N3)cc(C(=O)NCc2c(C)cc(C)[nH]c2=O)c1C)C1CCOCC1` [Example 77, N-((4,6-dimethyl-2-oxo-1,2-dihydropyridin-3-yl)methyl)-3-(ethyl(tetrahydro-2H-pyran-4-yl)amino)-2-methyl-5-(2-oxo-2′,3′,5′,6′-tetrahydrospiro[dihydroindole-3,4′-pyran]-5-yl)benzamide], the IC50 was 0.67 nM at Mutant type EZH2(A677G); 8.15 nM in data set [2] (Homo sapiens, KARPAS-422); 7.16 nM in data set [3] (Homo sapiens, Pfeiffer); 0.91 nM at wild-type EZH2. Besides, in data set [4], the inhibition in vivo at 100 mg/kg stood at 100%.
For the compound `CCN(c1cc(-c2ccc3c(c2)NC(=O)C32CCN(C3COC3)CC2)cc(C(=O)NCc2c(C)cc(C)[nH]c2=O)c1C)C1CCOCC1` [Example 84, N-((4,6-dimethyl-2-oxo-1,2-dihydropyridin-3-yl)methyl)-3-(ethyl(tetrahydro-2H-pyran-4-yl)amino)-2-methyl-5-(1′-(oxetan-3-yl)-2-oxospiro[dihydroindole-3,4′-piperidine]-6-yl)benzamide], the IC50 at Mutant type EZH2(Y641F) was 0.63 nM; on Mutant type EZH2(A677G), 0.47 nM; in data set [2] (Homo sapiens, KARPAS-422) it was 1.86 nM; in data set [3] (Homo sapiens, Pfeiffer), 1.74 nM; on Mutant type EZH2(Y641N), 0.25 nM; at wild-type EZH2 it was 2.13 nM. For the same compound, the AUC in data set [1] (setting [11]) worked out at 933 ng·h/mL; in data set [1] (setting [12]) it was 1190 ng·h/mL. Besides, the half-life in data set [1] (setting [11]) was 1.38 h. In data set [1] (setting [12]), this compound registered a Cmax of 501 ng/mL. Moreover, the bioavailability in data set [1] (setting [12]) stood at 25.4%.
With `CCN(c1cc(-c2ccc3c(c2)NC(=O)C32CCC(C)(O)CC2)cc(C(=O)NCc2c(C)cc(C)[nH]c2=O)c1C)C1CCOCC1` (stereo not drawn) [Example 93, N-((4,6-dimethyl-2-oxo-1,2-dihydropyridin-3-yl)methyl)-3-(ethyl(tetrahydro-2H-pyran-4-yl)amino)-5-(4-hydroxy-4-methyl-2′-oxospiro[cyclohexane-1,3′-dihydroindole]-6′-yl)-2-methylbenzamide], the IC50 on Mutant type EZH2(Y641F) is 0.57 nM; in data set [2] (Homo sapiens, KARPAS-422) it was 2.64 nM; in data set [3] (Homo sapiens, Pfeiffer), 1.39 nM; on Mutant type EZH2(Y641N) it was 0.4 nM; on wild-type EZH2, 1.12 nM. Moreover, the inhibition in vivo at 100 mg/kg in data set [4] amounted to 94%.
For `CCN(c1cc(-c2ccc3c(c2)C2(CCOCC2)C(=O)N3C)cc(C(=O)NCc2c(OC)cc(C)[nH]c2=O)c1C)C1CCN(CC(F)(F)F)CC1` [Example 109, 3-(Ethyl(1-(2,2,2-trifluoroethyl)piperidin-4-yl)amino)-N-((4-methoxy-6-methyl-2-oxo-1,2-dihydropyridin-3-yl)methyl)-2-methyl-5-(1-methyl-2-oxo-2′,3′,5′,6′-tetrahydrospiro[dihydroindole-3,4′-pyran]-5-yl)benzamide], the IC50 was 0.72 nM on Mutant type EZH2(Y641F); 0.63 nM on Mutant type EZH2(A677G); 2.15 nM in data set [2] (Homo sapiens, KARPAS-422); 1.34 nM in data set [3] (Homo sapiens, Pfeiffer); 0.81 nM on wild-type EZH2. Also, the AUC in data set [1] (setting [6]) was determined as 966 ng·h/mL; in data set [1] (setting [8]), 1610 ng·h/mL. Moreover, the half-life in data set [1] (setting [7]) was 1.12 h. Moreover, the Cmax in data set [1] (setting [9]) is 456 ng/mL. Moreover, the bioavailability in data set [1] (setting [10]) is 53.3%. In data set [4], the inhibition in vivo at 100 mg/kg turned out to be 101%.
On to `CCN(c1cc(-c2ccc3c(c2)NC(=O)C32CCOCC2)cc(C(=O)NCc2c(OC)cc(C)[nH]c2=O)c1C)C1CCOCC1OC` (stereo not drawn) [Example 112, 3-(Ethyl(3-methoxytetrahydro-2H-pyran-4-yl)amino)-N-((4-methoxy-6-methyl-2-oxo-1,2-dihydropyridin-3-yl)methyl)-2-methyl-5-(2-oxo-2′,3′,5′,6′-tetrahydrospiro[dihydroindole-3,4′-pyran]-6-yl)benzamide], for which the IC50 on Mutant type EZH2(Y641F) is 0.82 nM; on Mutant type EZH2(A677G), 0.51 nM; in data set [2] (Homo sapiens, KARPAS-422) it was 5.78 nM; in data set [3] (Homo sapiens, Pfeiffer), 4.17 nM; on Mutant type EZH2(Y641N), 0.48 nM; at wild-type EZH2 it was 1.02 nM. The AUC in data set [1] (setting [6]) was 936 ng·h/mL; in data set [1] (setting [8]), 1190 ng·h/mL. Besides, the half-life in data set [1] (setting [7]) is 1.26 h. For the same compound, in data set [1] (setting [9]), the Cmax turned out to be 494 ng/mL. For the same compound, the bioavailability in data set [1] (setting [10]) came to 25.5%.
